Test results as given in PMC11440508, “Dually Labeled Neurotensin NTS1R Ligands for Probing Radiochemical and Fluorescence-Based Binding Assays” (Journal of Medicinal Chemistry, 2024).

What was measured:
NTS1R [1] = molecular target: T1, NTS1R (Homo sapiens, UniProt P30989); test: Radiochemical competition binding, suspended CHO-hNTS1R cells; details: labeled probe [^3H]13 (1.8 nM), 90 min, 23 °C, read-out: RC cell suspension: pKi ± SEM (converted)
NTS1R [2] = molecular target: T1, NTS1R; test: Radioligand competition binding with [^3H]UR-MK300 at intact HT-29 colon carcinoma cells; details: [^3H]UR-MK300, intact HT-29 cells, 23 °C; read-out: NTS1R pKi ± SEM (converted)
Protocol: NTS1R binding affinities were determined in a reported competition binding assay[13] using intact hNTS1R-expressing HT-29 colon carcinoma cells and [^3H]UR-MK300 (structure see Figure 1A) as radioligand (competition binding curves shown in Figure S4, Supporting Information).
NTS1R radioligand competition binding experiments with [^3H]UR-MK300 (molar activity: 2.41 TBq/mmol) and the peptides 6–9, 10a, 10b, 13–16, and 18 were performed with intact hNTS1R-expressing human HT-29 colon carcinoma cells at 23 ± 1 °C using a previously reported protocol.[13] […] Cells were seeded one day before the assay, yielding a confluency of at least 90% on the day of the experiment. Total binding data (including total binding in the absence of competitor) were plotted as dpm values against log(concentration competitor) and analyzed by a four-parameter logistic equation (log(inhibitor) vs response–variable slope, GraphPad Prism 5, GraphPad Software, San Diego, CA) to obtain pIC50 values. Individual pIC50 values were converted to pKi values according to the Cheng–Prusoff equation[60] (logarithmic form). To plot average data from individual binding experiments, data were normalized (100% = “top” of the four-parameter logistic fit, 0% = unspecifically bound radioligand).

NTS1R [3] = molecular target: T1, NTS1R; test: Radiochemical saturation binding, adherent HT-29 cells; details: 23 °C
Protocol: Binding of both ligands, [^3H]13 and [^3H]18, was studied at adherent and suspended intact CHO-hNTS1R cells, and binding of [^3H]13 was additionally studied using CHO-hNTS1R cell membrane preparations (saturation and competition binding, kinetic studies). Furthermore, saturation binding experiments were performed with both ligands at intact adherent HT-29 cells. All experiments were performed in triplicate except for dissociation experiments performed with suspended cells in 50 mL flacon tubes (performed in duplicate). To reduce radioligand consumption in the aforementioned experiments, [^3H]13 and [^3H]18 were 1:1 diluted with 13 and 18, respectively (for the purpose of easier reading these mixtures are denoted "[^3H]13" and "[^3H]18"in the following). All samples were incubated at 23 ± 1 °C in the dark under gentle shaking (incubation times are outlined below). DPBS1 served as binding buffer throughout. In the case of experiments performed with cell suspensions, CHO-hNTS1R cells were seeded in T75 culture flasks 3–4 days prior to the experiment. […] The plates were sealed with transparent sealing tape (Greiner EASYseal, part no. 676001, Greiner Bio-One) and shaken in the dark overnight before measurement of the radioactivity (dpm) using a MicroBeta2 plate counter equipped with six pairs of photomultiplier tubes (PerkinElmer). […]

T1 sequence (P30989 whole entry): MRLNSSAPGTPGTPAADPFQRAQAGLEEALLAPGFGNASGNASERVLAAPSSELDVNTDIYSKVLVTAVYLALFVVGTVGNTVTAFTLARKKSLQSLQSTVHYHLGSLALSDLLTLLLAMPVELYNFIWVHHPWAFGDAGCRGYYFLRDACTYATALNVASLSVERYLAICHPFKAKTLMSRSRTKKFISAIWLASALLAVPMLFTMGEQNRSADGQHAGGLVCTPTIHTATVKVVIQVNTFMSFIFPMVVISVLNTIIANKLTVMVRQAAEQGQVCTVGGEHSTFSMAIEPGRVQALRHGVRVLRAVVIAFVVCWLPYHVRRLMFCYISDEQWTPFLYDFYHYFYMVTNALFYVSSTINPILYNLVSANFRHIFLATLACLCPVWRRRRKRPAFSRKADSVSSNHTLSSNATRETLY

CCC(=O)NCCCCNC(=O)N=C(N)NCCC[C@H](NC(=O)[C@@H]1CCCN1C(=O)[C@@H](NC(=O)CCc1cn(CCCNC(=O)c2ccc(-c3c4ccc(=[N+](C)C)cc-4oc4cc(N(C)C)ccc34)c(C(=O)[O-])c2)nn1)C1CCNCC1)C(=O)N[C@@H](CCCNC(=N)N)C(=O)N1CCC[C@H]1C(=O)N[C@@H](Cc1ccc(O)cc1)C(=O)N[C@H](C(=O)N[C@@H](CC(C)C)C(=O)O)[C@@H](C)CC [Compound 13, N^α-(3-(1-N-((1-Carboxylato-2-(6-(dimethylamino)-3-(dimethyliminio)-3H-xanthen-9-yl)phen-5-yl)1-oxomethyl)aminoprop-3-yl-1H-1,2,3-triazol-4-yl)propanoyl)-2-(piperidin-4-yl)-Gly-Pro-N^ω-[(4-(N-propanoyl)aminobutyl)aminocarbonyl]Arg-Arg-Pro-Tyr-Ile-Leu Tris(hydrotrifluoroacetate)]
Ki (NTS1R [1]): 4.68 nM

CCC(=O)NCCCCNC(=O)NC(=N)NCCC[C@H](NC(=O)[C@@H]1CCCN1C(=O)[C@@H](NC(=O)CCc1cn(CCCNC(=O)CCC#Cc2ccc3c(c2)C(C)(C)C2=C4C=C5C6=[N+](CCC5OC4CCN23)c2ccc(S(=O)(=O)[O-])cc2C6(C)C)nn1)C1CCNCC1)C(=O)N[C@@H](CCCNC(=N)N)C(=O)N1CCC[C@H]1C(=O)N[C@H](C(=O)N[C@H](C(=O)N[C@@H](CC(C)C)C(=O)O)[C@@H](C)CC)C(C)(C)c1ccc(O)cc1 (stereo partly drawn) [Compound 18, N^α-(3-(N-(1-(8-Sulfonato-5,5,27,27-tetramethyl-16-oxa-20-aza-12-azoniaheptacyclo[15.11.0.03,15.04,12.06,11.020,28.021,26]octacosa-1(28),2,4(12),6(11),7,9,21(26),22,24-nonaen-24-yl)-5-oxopentyn-5-yl)-1-aminoprop-3-yl-1H-1,2,3-triazol-4-yl)propanoyl)-2-(piperidin-4-yl)-Gly-Pro-N^ω-[(4-(N-propanoyl)aminobutyl)aminocarbonyl]Arg-Arg-Pro-β,β-dimethyl-L-Tyr-Ile-Leu Tris(hydrotrifluoroacetate)]
Ki (NTS1R [2]): 4.07 nM

CCC(=O)NCCCCNC(=O)NC(=N)NCCC[C@H](NC(=O)[C@@H]1CCCN1C(=O)[C@@H](NC(=O)CCc1cn(CCCNC(=O)c2ccc(-c3c4ccc(=[N+](C)C)cc-4oc4cc(N(C)C)ccc34)c(C(=O)[O-])c2)nn1)C1CCNCC1)C(=O)N[C@@H](CCCNC(=N)N)C(=O)N1CCC[C@H]1C(=O)N[C@@H](Cc1ccc(O)cc1)C(=O)N[C@H](C(=O)N[C@@H](CC(C)C)C(=O)O)[C@@H](C)CC [[^3H]13]
Kd (NTS1R [3]): 1.2 ± 0.1 nM
